SMILES strings stand for the structures. Values after ≈ are worked out from the molar mass of the structure shown. Bounds are passed on as bounds.

The conditions of the series: buffer; pH 7.4; 200.0 µM.
Take `C/C(=N\NC(=O)c1ccn(C)n1)c1ccco1`: the solubility (kinetic) was greater than 34.8 µg/mL.

`Cc1cccc(C)c1NC(=S)NC(=O)c1ccc(Br)o1` gave a kinetic solubility of 4.1 µg/mL (≈ 11.6 µM).

On to `Cc1cc(=O)cc(C)n1-c1ccccc1Br`, for which the solubility (kinetic) turned out to be 39.8 µg/mL (≈ 143 µM).

The compound `CN=C1S/C(=C\c2cccc(Cl)c2Cl)C(=O)N1C` showed a solubility (kinetic) of less than 0.3 µg/mL.

`CN1CCN(c2ccc(C(=O)NC3CCCCC3)cc2[N+](=O)[O-])CC1` came in with a solubility (kinetic) of 49.7 µg/mL (≈ 143 µM).

Consider `CC(C)OP(=O)(OC(C)C)C(NC(=O)c1ccccc1)C(N)=O` (centres undefined), for which the solubility (kinetic) is greater than 51.3 µg/mL.

Regarding `CC(C)[C@H](NC(N)=O)C(=O)Nc1ccc(OCc2ccccc2)cc1`, the kinetic solubility turned out to be 3 µg/mL (≈ 8.79 µM).

With `CC(=O)c1ccc(OC(=O)CCNC(=O)c2ccccc2)cc1`, the kinetic solubility was found to be 27.6 µg/mL (≈ 88.6 µM).

`Cc1ccc(NC(=O)CCc2c[nH]c3ccccc23)nc1` yielded a kinetic solubility greater than 41.9 µg/mL.

`COc1ccc(C(=O)NCC(=O)N2CCCC(C)C2)cc1OC` (centres undefined) returned a solubility (kinetic) greater than 48.1 µg/mL.

Compound `CCCn1c(SCC(=O)Nc2ccc(F)c(Cl)c2)nc(O)cc1=O` returned a solubility (kinetic) greater than 55.8 µg/mL.

The compound `Cc1ccc(C(=O)NCc2ccc3c(c2)OCO3)cc1Cl` showed a kinetic solubility of less than 0.7 µg/mL.

`CCc1ccc(NC(=S)N2CCN(C)CC2)cc1`: the kinetic solubility is greater than 39.5 µg/mL.

In turn, `COc1cc2[nH]c(=S)n(Cc3cccs3)c(=O)c2cc1OC` displayed a kinetic solubility of less than 0.4 µg/mL.

Compound `Cc1cc(NC(=O)CSCC(=O)OCc2nnc(-c3ccc(F)cc3)o2)no1` registered a kinetic solubility greater than 61 µg/mL.

`Nc1n[nH]c(N)c1N=Nc1ccc(F)cc1` came in with a solubility (kinetic) greater than 33 µg/mL.

With `O=C(CCc1ccccc1)NC(=S)NCc1ccco1`, the kinetic solubility turned out to be 2.7 µg/mL (≈ 9.36 µM).

`CC1CCN(C(=O)c2cc3ccccc3cc2O)CC1` registered a kinetic solubility greater than 40.4 µg/mL.

`Cc1ccc(S(=O)(=O)N2CCOCC2)cc1NC(=O)CNCc1ccc(Cl)cc1Cl` gave a solubility (kinetic) of 5.4 µg/mL (≈ 11.4 µM).

As for `CCCc1nc2ccccc2n1C(=S)SC`, the kinetic solubility was determined as 12.3 µg/mL (≈ 49.1 µM).

Compound `CN(CCOc1ccccc1)CC(O)COCc1ccccc1F` (centres undefined) showed a kinetic solubility of 46 µg/mL (≈ 138 µM).

Compound `CCN(CC)C(=O)c1cc(Cl)ccn1` came in with a solubility (kinetic) of 26.8 µg/mL (≈ 126 µM).

`COC(=O)c1ccc(CN2C(=O)c3ccccc3C2=O)o1` showed a kinetic solubility greater than 42.8 µg/mL.

In turn, `COc1ccc(NS(=O)(=O)c2cn(C)cn2)c(OC)c1` came in with a kinetic solubility greater than 44.6 µg/mL.

`Cc1cc(C)nc(N2CCCC(C(=O)Nc3cccc(Cl)c3)C2)n1` (centres undefined) showed a solubility (kinetic) of less than 0.2 µg/mL.

Take `COCCNc1nc(-c2ccccc2)nc2ccccc12.Cl`: the kinetic solubility was greater than 47.4 µg/mL.

Compound `N#CC1=C(S)N(c2ccc(F)cc2)C2(CCCCC2)NC1=O` displayed a solubility (kinetic) greater than 47.6 µg/mL.

For the compound `Cc1ccc(CNC(=O)c2ccc(N(C)C)cc2)cc1`, the solubility (kinetic) worked out at 3.2 µg/mL (≈ 11.9 µM).

`S=C(NCc1ccc(Cl)cc1)NCc1ccccn1`: the kinetic solubility worked out at 35.1 µg/mL (≈ 120 µM).

`CCN(CC)CCNS(=O)(=O)c1ccc(/C=C/C(=O)O)cc1` gave a solubility (kinetic) of 41 µg/mL (≈ 126 µM).

As for `COc1cc2c(cc1OC)CN(C(=O)Cn1ccccc1=O)CC2`, the kinetic solubility is greater than 49.3 µg/mL.

As for `COc1ccc(C(=O)OCC(=O)NC(=O)Nc2ccccc2F)c(OC)c1`, the solubility (kinetic) amounted to 2.4 µg/mL (≈ 6.38 µM).

`O=S(=O)(NCC(O)c1ccccc1)c1cc(Cl)sc1Cl` (centres undefined) showed a kinetic solubility of 49.7 µg/mL (≈ 141 µM).

In turn, `CCCCOc1nc(N2CCOCC2)nc(C)c1[N+](=O)[O-]` registered a kinetic solubility of 1.5 µg/mL (≈ 5.06 µM). This solubility kinetic lies about 33-fold lower than the previous one.

Consider `O=C(NC1CCCC1)C1CC(=O)N(c2ccc(F)cc2)C1` (centres undefined), for which the kinetic solubility was found to be 38.4 µg/mL (≈ 132 µM).

In the case of `CCC1Oc2ccc(C)cc2N(CC(=O)NCC2CCCO2)C1=O` (centres undefined), the kinetic solubility came out at 43.6 µg/mL (≈ 131 µM).

As to `COc1ccc(C(=O)O/N=C(\N)c2ccccn2)c(OC)c1`, the solubility (kinetic) was greater than 45.2 µg/mL.

Consider `Cc1c(NS(=O)(=O)c2cccc(C(=O)N3CCCC3)c2)c(=O)n(-c2ccccc2)n1C`, for which the solubility (kinetic) is greater than 66.1 µg/mL.

In the case of `CN(C)/C(=N\S(=O)(=O)c1ccc(Cl)cc1)c1ccc(F)cc1`, the solubility (kinetic) is greater than 51.1 µg/mL.

Compound `Cc1cc(C(=O)NCc2cc(C(=O)O)co2)co1` registered a kinetic solubility greater than 37.4 µg/mL.

Compound `CC(NC(=O)c1cc(Br)cs1)C1CCCO1` (centres undefined) came in with a solubility (kinetic) greater than 45.6 µg/mL.

With `Fc1ccc(N=Cc2ccc[nH]2)cc1`, the solubility (kinetic) came to 11 µg/mL (≈ 58.4 µM).

In turn, `Cc1ccc(NC(=O)C(c2ccccc2)N(C)C)cc1Cl` (centres undefined) gave a kinetic solubility of 28.3 µg/mL (≈ 93.5 µM).

Compound `CCCc1cc(=O)[nH]c(SCC(=O)Nc2cc(S(=O)(=O)N(CC)c3ccccc3)ccc2Cl)n1` gave a kinetic solubility of 9.8 µg/mL (≈ 18.8 µM).

`Cc1cccc(Cc2ncc(C(F)(F)F)cc2Cl)c1` came in with a solubility (kinetic) of less than 0.6 µg/mL.

With `CCCOc1ccc(/C=C/C(=O)NC2CCCCC2)cc1`, the kinetic solubility is less than 0.6 µg/mL.

On to `CCC(=NCc1cc(OC)cc(OC)c1)c1c(O)[nH]c(=O)[nH]c1=O`, for which the kinetic solubility was found to be 12.5 µg/mL (≈ 37.5 µM).

For the compound `N=c1c2c3c(sc2ncn1N)CCCC3`, the kinetic solubility is greater than 33 µg/mL.

On to `Cc1ccc(C(=O)N/C(=C\c2ccco2)C(=O)N2CCCCC2)cc1`, for which the solubility (kinetic) was greater than 50.8 µg/mL.

As for `C=CCNC(=O)c1cnn(-c2ccccc2)c1-c1ccccc1`, the solubility (kinetic) was greater than 45.5 µg/mL.

On to `CCOC(=O)COc1cc([N+](=O)[O-])cc2cccnc12`, for which the solubility (kinetic) is greater than 41.4 µg/mL.

In the case of `O=C(O)CCC(=O)Nc1cccc(C(=O)c2ccccc2)c1`, the kinetic solubility is greater than 44.6 µg/mL.

The compound `CCC(C)N1CNc2c(c(=O)[nH]c(=S)n2-c2cccc(C)c2)C1` (centres undefined) yielded a kinetic solubility greater than 49.6 µg/mL.

`O=C(O)CC1(CC(=O)Nc2ccc(F)c(Cl)c2)CCCCC1` gave a kinetic solubility greater than 49.2 µg/mL.

The compound `CCOc1ccccc1C(=O)NC1CCN(Cc2ccccc2)CC1` yielded a solubility (kinetic) of 36.8 µg/mL (≈ 109 µM).

As to `CS(=O)(=O)N(CC(=O)NCc1cccnc1)C1CCCCC1`, the solubility (kinetic) was greater than 48.8 µg/mL.

The compound `CC(C(=O)NCC1CCCCC1)N1CCc2ccccc2C1` (centres undefined) registered a kinetic solubility of 41.9 µg/mL (≈ 139 µM).

`CCNc1nc(-c2cc(C)n(Cc3ccco3)c2C)cs1` displayed a kinetic solubility of 5.2 µg/mL (≈ 17.3 µM). Against the preceding compound, the solubility kinetic is about 8.1-fold lower.

In turn, `CN(C)CCOC1c2ccccc2CSc2ccccc21.O=CO` (centres undefined) displayed a kinetic solubility of 46.7 µg/mL. This solubility kinetic lies about 9-fold higher than the previous one.

Take `CCOC(=O)C1CCN(CCC(=O)Nc2ccc(C)c(C)c2)CC1`: the kinetic solubility was greater than 49.9 µg/mL.

In turn, `Cc1cc(NCC2CCCCC2)nc2ccccc12` registered a solubility (kinetic) of 21.4 µg/mL (≈ 84.1 µM).

For the compound `Cc1ccc(NC(=O)CN(C)CC(=O)Nc2ccccc2C#N)cc1`, the kinetic solubility was greater than 50.5 µg/mL.

Consider `CCOc1ccc2nc(NS(=O)(=O)c3cccs3)sc2c1`, for which the kinetic solubility was 9.9 µg/mL (≈ 29.1 µM).

For the compound `CCc1nc(Nc2ccc(O)cc2)c2oc3ccccc3c2n1.Cl`, the kinetic solubility was determined as 1.2 µg/mL.

Consider `CC(C)COP(=O)(OCC(C)C)C(O)c1ccc(N(C)C)cc1` (centres undefined), for which the kinetic solubility was greater than 51.5 µg/mL.

As to `Cc1ccc(NC(=O)COC(=O)c2cccc(C)c2[N+](=O)[O-])cc1S(=O)(=O)N1CCCCC1`, the kinetic solubility amounted to 3.8 µg/mL (≈ 7.99 µM).

In turn, `Nc1ccc2nc(-c3ccccc3)c(-c3ccccc3)nc2c1` displayed a kinetic solubility of 25.7 µg/mL (≈ 86.4 µM).

Compound `Cc1ccc(Cn2ccsc2=NC(=O)COC(=O)C(C)C)cc1` registered a solubility (kinetic) of 45.3 µg/mL (≈ 136 µM).

In turn, `COC1C(C)=C(C)C(=O)N1Cc1ccc(F)cc1` (centres undefined) displayed a solubility (kinetic) of 31.9 µg/mL (≈ 128 µM). The solubility kinetic values of the last two compounds are within 1.5-fold of each other.

In turn, `CCCc1cc(=O)oc2cc(OCC(=O)N3CCOCC3)c(Cl)cc12` had a kinetic solubility of 3.8 µg/mL (≈ 10.4 µM).

`CN1CCN(C(=O)c2ccc(Cl)cc2)CC1` registered a kinetic solubility greater than 35.8 µg/mL.

On to `O=C(COC(=O)c1ccncc1)Nc1ccc2c(c1)OCO2`, for which the solubility (kinetic) was greater than 45 µg/mL.

Compound `CCOc1nc(C)ccc1-c1noc(-c2cccnc2)n1` gave a kinetic solubility of 11 µg/mL (≈ 39 µM).

For `Cc1ccc(S(=O)(=O)N(C)CC(=O)OCC(=O)NCCc2ccc(S(N)(=O)=O)cc2)cc1`, the kinetic solubility was greater than 72.5 µg/mL.

As a reminder, the solubility (kinetic) is solubility judged after dilution from a stock solution rather than from solid.

Source of the values: PubChem BioAssay AID1996.
